Source: patent EP1370263B1, “ANTIBIOTIC PHARMACEUTICAL COMPOSITION WITH LYSERGOL AS BIO-ENHANCER AND METHOD OF TREATMENT” (Council of Scientific and Industrial Research, priority 2002, dated 2003)

How the values were obtained:
bacteria = experiment: Growth of bacteria in presence of lysergol alone (killing activity); assay type: cell-based; details: 10 µg/ml, no antibiotic
Method: The invention is further explained in the form of following embodiments. • 1. Assay for bio-enhancement of anti-infective agents • (a) The minimum inhibitory concentration (MIC) of antibiotic is determined against Escherichia coli (ATCC 10536), Bacillus subtilis (ATCC 6051) and Mycobacterium smegmatis (ATCC 14468) in broth and disc diffusion assay. • (b) The antibiotics at concentrations 1/4, 1/3, 1/2 and equal to MIC are added alone and in combination with the test compound at varying concentrations on disc and in broth to evaluate the comparative inhibition. • (c) These combinations showing significant advantage or higher activity than antibiotic alone in terms of enhanced inhibition of bacterial growth (large inhibition zone in disc diffusion and effectivity of lower concentration in broth assay) are picked up for future testing. • (d) In broth assay the activity is quantified by counting number of viable cells in a given treatment and converted in fold enhancement by combination compared to antibiotic / drug alone in the killing percentage of cells. • (e) The pretreatment assay followed to determine whether the compound is required along with antibiotic to enhance its activity or even its withdrawal after treatment or prior to antibiotic treatment would benefit. […]

Escherichia coli = experiment: microbe, parasite or virus in culture
Method: The invention is further explained in the form of following embodiments. • 1. […] For this, the cells are treated with compound for 4 to 8 hours and then washed free of it by centrifugation and washing in sterile water. […] These experiments are being described in the following examples. […] In all the experiments the Lysergol concentration is kept at 10 µg/ml, unless it is specifically mentioned.

Bacillus subtilis = experiment: Broth assay, viable cell count: killing action of antibiotic alone and in combination with lysergol; assay type: cell-based, Bacillus subtilis (ATCC 6051)
Method: (§1) The invention is further explained in the form of following embodiments. • 1. Assay for bio-enhancement of anti-infective agents • (a) The minimum inhibitory concentration (MIC) of antibiotic is determined against Escherichia coli (ATCC 10536), Bacillus subtilis (ATCC 6051) and Mycobacterium smegmatis (ATCC 14468) in broth and disc diffusion assay. • (b) The antibiotics at concentrations 1/4, 1/3, 1/2 and equal to MIC are added alone and in combination with the test compound at varying concentrations on disc and in broth to evaluate the comparative inhibition. • (c) These combinations showing significant advantage or higher activity than antibiotic alone in terms of enhanced inhibition of bacterial growth (large inhibition zone in disc diffusion and effectivity of lower concentration in broth assay) are picked up for future testing. • (d) In broth assay the activity is quantified by counting number of viable cells in a given treatment and converted in fold enhancement by combination compared to antibiotic / drug alone in the killing percentage of cells. • (e) The pretreatment assay followed to determine whether the compound is required along with antibiotic to enhance its activity or even its withdrawal after treatment or prior to antibiotic treatment would benefit. For this, the cells are treated with compound for 4 to 8 hours and then washed free of it by centrifugation and washing in sterile water. This is followed by treatment with antibiotic as in steps b to d.
(§2) Bioactivity is experimented with the killing activities of different antibiotics against the bacteria singly and in combination with the test compound Lysergol following the method described above. These experiments are being described in the following examples. […] In all the experiments the Lysergol concentration is kept at 10 µg/ml, unless it is specifically mentioned.
Lysergol mediated enhancement in the killing action of antibiotics against Gram positive bacterium Bacillus subtilis.

Mycobacterium smegmatis = experiment: as above; assay type: cell-based, Mycobacterium smegmatis (ATCC 14468)
Method: as §1, §2
Lysergol mediated enhancement in the killing action of antibiotics against bacterium Mycobacterium smegmatis Table 3: […]

[1] = Transport of antibiotics across freshly isolated gut membrane in U-shaped tubes (absorbency in right arm); assay type: in vitro ADME
Method: We performed the experiments in U-shaped tubes with joint in between, where the freshly isolated gut membrane is fixed. In control tube only antibiotic solution (4ml @ 1mg/ml solution) is poured in the left arm where as in the right arm only water is poured. In the other tube in addition to the antibiotic solution lysergol (4µg @ 1µg/ml) is added.

[2] = Escherichia coli, read-out: Survival fraction of viable cells upon treatment with antibiotic alone

Row | Compound | killing of bacteria grown in presence of the compound as such (bacteria) | viability at 10 µg/mL (Escherichia coli; [2]) | viability at 20 µg/mL (Escherichia coli; [2]) | Fold enhancement in antibiotic activity (Escherichia coli; antibiotic 10 µg/ml + lysergol 10 µg/ml versus antibiotic alone) | Fold enhancement in antibiotic activity (Escherichia coli; antibiotic 20 µg/ml + lysergol 10 µg/ml versus antibiotic alone) | viability at 0.4 µg/mL (Bacillus subtilis; Bacillus subtilis, read-out: Survival fraction of viable cells upon treatment with antibiotic alone) | Survival fraction of viable cells upon treatment with antibiotic + lysergol combination (Bacillus subtilis; antibiotic 0.4 µg/ml + lysergol 10 µg/ml) | Fold enhancement in antibiotic activity (Bacillus subtilis; antibiotic 0.4 µg/ml + lysergol 10 µg/ml versus antibiotic alone) | viability at 0.2 µg/mL (Mycobacterium smegmatis; Mycolicibacterium smegmatis, read-out: Survival fraction of viable cells upon treatment with antibiotic alone) | Survival fraction of viable cells upon treatment with antibiotic + lysergol combination (Mycobacterium smegmatis; antibiotic 0.2 µg/ml + lysergol 10 µg/ml) | Fold enhancement in antibiotic activity (Mycobacterium smegmatis; antibiotic 0.2 µg/ml + lysergol 10 µg/ml versus antibiotic alone) | Increase in absorbency [1]
1 | CN1C[C@H](CO)C=C2c3cccc4[nH]cc(c34)C[C@H]21 [Lysergol, 9,10-Didehydro-6-methylergoline-8-[…]-methanol] | no significant killing |  |  |  |  |  |  |  |  |  |  | 
2 | CO[C@H]1/C=C/O[C@@]2(C)Oc3c(C)c(O)c4c(O)c(c(/C=N/N5CCN(C)CC5)c(O)c4c3C2=O)NC(=O)/C(C)=C\C=C\[C@H](C)[C@H](O)[C@@H](C)[C@@H](O)[C@@H](C)[C@H](OC(C)=O)[C@@H]1C [Rifampicin] |  | 35 to 45% | 25 to 30% | 6-12 fold | 3-5 fold | 8.5 to 9.6% | 0.021-0.028 | 3.0-4.6 fold | 45 to 54% | 0.09-0.10 | 4.5-6.0 fold | 0.131
